Experimental data taken from patent US5244916A, “Inhibition of respiratory burst using posttranslational modification inhibitors” (The Scripps Research Institute, priority 1992, dated 1993).

How the values were obtained:
Format in all cases: cell-based
[1] = tested on: HL-60 cells (NADPH oxidase / respiratory burst); experiment: Prevention of compactin-inhibition of FMLP-stimulated O2- formation in HL-60 cells by mevalonic acid and other supplements
Description: HL-60 cells were maintained in stationary culture in RPMI 1640 medium (Gibco, Grand Island, NY) containing 10% fetal bovine serum at 37° C in an atmosphere of 95 air and 5% CO2. The cells (about 8×10^5 /ml) were differentiated into neutrophil-like cells by treatment with 1.3% DMSO for six days (Harris, et al., J. Leukocyte Biol. 37: 407-422 (1985)). The cells were treated with the indicated levels of compactin or lovastatin by addition of a 1,000-fold concentrated stock solution to the appropriate concentration on day 4 of differentiation. […] In studies of the protective effect of mevalonic acid, the compound was added as the mevalonolactone (Sigma Chemical Co., St. Louis, MO) at a concentration of 1 mM to the cell culture on days 4 to 6. Similarly, cholesterol was added in the form of LDL prepared according to the method of Curtiss and Edgington (Curtiss, et al., J. Biol. Chem. 257: 15213-15221 (1991)) at a final concentration of 50 μg/ml; ubiquinone (Sigma Chemical Co., St. Louis, MO) was added as Coenzyme Q-10 at a final concentration of 0.5 mM; and dolichol (Sigma Chemical Co., St. Louis, MO) was added as a dispersion in phosphatidylcholine at a final concentration of 0.5 mM (Cutts, et al., J. Cell Physiol. 139: 550-555 (1989)).
O2 --formation by HL-60 cells was assessed by the SOD-sensitive reduction of cytochrome c. Cells were suspended at 1×10^7 /ml in Krebs-Ringer Hepes buffer with 5.5 mM glucose (KRHG) and 50-100μl of cells were added to a cuvette containing 100 μM cytochrome c (type III, Sigma Chemical Co., St. Louis, MO), ±300 μg/ml SOD (Sigma Chemical Co., St. Louis, MO) in 700-750 μl KRHG. Cytochalasin b (Sigma Chemical Co., St. Louis, MO) was added to a final concentration of 5 μg/ml, and the cells were incubated at 37° C. for five minutes while a stable baseline at a wavelength of 550 nm was obtained. O2 --formation was initiated by the addition of 1 μM N-formylmethionylleucylphenylalanine (FMLP; Sigma Chemical Co., St. Louis, MO) or 1μg/ml phorbol myristate acetate (PMA; Sigma Chemical Co., St. Louis, MO). Cytochrome c reduction at 550nm was continuously monitored and maximal rate and extent of the reaction calculated.
Inhibition of protein isoprenylation can interfere with LMWG function without inhibiting overall cellular function (Maltese, supra (1990)). Since compactin inhibits at the enzymatic step preceding mevalonic acid synthesis, one should be able to reverse effects of compactin due specifically to inhibition of this pathway by addition of exogenous mevalonic acid.

cytochrome b558 = experiment: Cytochrome b558 levels in HL-60 cells by Western blot; settings: 10 μM compactin
HL-60 cells = experiment: HL-60 differentiation after DMSO (N-formyl peptide receptor and CD14 markers); settings: concentrations of the studies
Description: Cell viability was determined by uptake of propidium iodide (537-059; Calbiochem-Behring Corp., La Jolla, CA), detected from the emission fluorescence at 625/35 nm using a DM560 dichronic mirror (Krishan, J. Cell. Biol. 66: 188-192 (1975)). Expression of N-formyl peptide receptor was determined using fluorescein-labeled N-CHONle-Leu-Phe-Nle-Tyr-Lys (Molecular Probes, Inc., Eugene, OR) essentially by the method of Sklar and Finney (Sklar and Finney, Cytometry 3: 161-165 (1982)). Specificity of ligand binding was determined in the presence of 4 mM unlabeled T-boc peptide. CD14 expression was determined using monoclonal antibody 3C10 at a dilution of 1:1,000 (see Goyert and Ferrero, in Leucocyte Typing III: White Cell Differentiation Antigens, McMichael, ed., Oxford Univ. Press, NY, pp. 613-619 (1988)), with detection using a fluorescein-labeled secondary antibody. Flow cytometric analyses were performed on a FACSIV (registered trademark of Becton-Dickinson, San Jose, CA) equipped with a 2W argon laser (Coherent Inc., Palo Alto, collected in list mode and analyzed using the Consort 30 program (Becton-Dickinson, San Jose, CA) after collecting 10,000 events.
HL-60 differentiation was assessed using two distinct markers: appearance of N-formyl peptide receptors and appearance of the CD14 antigen.

[2] = 4 μM compactin + 1 mM mevalonate
[3] = 10 μM compactin + 50 μg/ml cholesterol, n = 2
[4] = 10 μM compactin + 1 mM mevalonate

In the case of `CC[C@H](C)C(=O)O[C@H]1CCC=C2C=C[C@H](C)[C@H](CC[C@@H]3C[C@@H](O)CC(=O)O3)[C@H]21` [compactin], the “FMLP-stimulated O2- formation, Extent” value ([1]; 4 μM compactin) is reported as 28 ± 3.5 % of control, the “FMLP-stimulated O2- formation, Rate” value ([1]; 4 μM compactin) is reported as 43 ± 5.0 % of control and the “FMLP-stimulated O2- formation, Extent” value [1, 2] is reported as 96 ± 8.0 % of control. For the same molecule, the “FMLP-stimulated O2- formation, Rate” value [1, 2] was 97 ± 4.0 % of control, the “FMLP-stimulated O2- formation, Extent” value ([1]; 10 μM compactin) was 13 ± 0.4 % of control and the “FMLP-stimulated O2- formation, Rate” value ([1]; 10 μM compactin) was 19 ± 3.9 % of control. The “FMLP-stimulated O2- formation, Extent” value [1, 3] was 22 % of control, the “FMLP-stimulated O2- formation, Rate” value [1, 3] was 28 % of control and the “FMLP-stimulated O2- formation, Extent” value [1, 4] was 114 ± 1.6 % of control. The “FMLP-stimulated O2- formation, Rate” value [1, 4] was 115 ± 7.6 % of control, the “expression of cytochrome b558” value (cytochrome b558) was “normal” and the “ability of HL-60 cells to differentiate normally upon exposure to DMSO” value (HL-60 cells) was “neither was the ability of these cells to differentiate normally”.
